Assay results taken from PubChem BioAssay (NCI).
Where “and” joins values, the source holds several entries; their conditions need not be identical. Equal entries are not always repeated.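 Briefly, cells in 96-well plates were exposed to five compound concentrations for 48 h, and endpoints were estimated by linear interpolation. Here, GI50 denotes the concentration required for 50% inhibition of growth. TGI: total growth inhibition.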

Experiments:
Assay in all cases: NCI tumour cell line growth inhibition, 48 h
DU-145 prostate = tested on: DU-145 prostate
SF-295 CNS = tested on: SF-295 CNS
SNB-19 CNS = tested on: SNB-19 CNS
HS 578T breast = tested on: HS 578T breast
M14 melanoma = tested on: M14 melanoma
KM12 colon = tested on: KM12 colon
MDA-MB-231 breast = tested on: MDA-MB-231 breast
UO-31 renal = tested on: UO-31 renal
NCI-H23 lung = tested on: NCI-H23 lung
A549 NSCLC = tested on: A549 NSCLC

| Compound | TGI (DU-145 prostate) [µM] | TGI (SF-295 CNS) | TGI (SNB-19 CNS) | TGI (HS 578T breast) [µM] | TGI (M14 melanoma) [µM] | TGI (KM12 colon) | TGI (MDA-MB-231 breast) [µM] | TGI (UO-31 renal) | TGI (NCI-H23 lung) | TGI (A549 NSCLC) | GI50 (SF-295 CNS) | GI50 (SNB-19 CNS) [µM] | GI50 (KM12 colon) [µM] | GI50 (A549 NSCLC) [µM] | GI50 (UO-31 renal) [µM] | GI50 (NCI-H23 lung) [µM] |
| --- | --- | --- | --- | --- | --- | --- | --- | --- | --- | --- | --- | --- | --- | --- | --- | --- |
| c1ccc(N=C2SC3=Nc4cccc5cccc(c45)N3C2=Nc2ccccc2)cc1 | > 100 | > 100 µM | > 100 µM | > 100 | > 100 | > 100 µM | > 100 | > 100 µM | > 100 µM |  |  |  |  |  |  |  |
| O=C(CCC(=O)c1ccc(Cl)cc1)NO | > 100 | > 100 µM | > 100 µM | > 100 | > 100 | > 100 µM | > 100 | > 100 µM | > 100 µM | > 100 µM |  |  |  |  |  |  |
| CCOC(=O)Nn1c(C)nnc1-c1ccccc1 | > 100 | > 100 µM | > 100 µM | > 100 | > 100 | > 100 µM | > 100 | > 100 µM | > 100 µM | > 100 µM |  |  |  |  |  |  |
| COc1cc([C@@H]2c3cc4c(cc3[C@@H](Nc3ccc([N+](=O)[O-])cc3C(=O)c3ccccc3)[C@H]3COC(=O)[C@H]23)OCO4)cc(OC)c1OC | > 100 | > 100 µM | > 100 µM | > 100 | > 100 | > 100 µM |  |  | > 28.6 µM | > 100 µM |  |  |  |  |  |  |
| CCOc1cc2c(cc1O)/C(=N\OC)C[C@@H]1[C@@H]2CC[C@]2(C)[C@@H](O)CC[C@@H]12 | > 100 | 2.32 µM | > 100 µM | 0.776 | 21.8 | 7.63 µM | 44.7 | > 58.5 µM | > 39.2 µM | > 100 µM | 0.242 µM |  |  |  |  |  |
| CCOC(=O)C(NC(C)=O)(Nc1ccc(F)cc1)C(F)(F)F (configuration not stated) | > 100 | > 100 µM | > 100 µM | > 100 | > 100 | > 100 µM | > 100 | > 100 µM | > 100 µM | > 100 µM |  |  |  |  |  |  |
| FC(F)(F)c1cc(Cl)cnc1N/N=C(/c1ccccc1)c1ccccn1 | > 100 | 5.5 µM | > 100 µM | 5.98 | 5.04 | 30.1 µM | 40.2 | 11.9 µM | 14.4 µM | 22.9 µM |  |  |  |  |  |  |
| O=c1[nH][nH]c(=O)n1Cc1ccccc1Cn1c(=O)[nH][nH]c1=O | > 100 | > 100 µM | > 100 µM | > 100 | > 100 | > 100 µM | > 100 | > 100 µM | > 100 µM | > 100 µM |  |  |  |  |  |  |
| COc1ccc(C2c3cc4c(cc3OC(NNS(=O)(=O)c3ccc(C)cc3)C2C)OCO4)cc1 (configuration not stated) | > 100 | > 100 µM | > 100 µM | > 100 | > 100 | > 100 µM | > 100 | > 100 µM | > 100 µM | > 100 µM |  |  |  |  |  |  |
| CNC(=O)OCC1=C(COC(=O)NC)C(C)N(c2ccc(OC)cc2)C1 (configuration not stated) | > 100 | > 100 µM | > 100 µM | > 100 | > 100 | > 100 µM | > 100 | > 100 µM | > 100 µM | > 100 µM |  |  |  |  |  |  |
| O=C(O)CN(CC(=O)O)C1CCCCC1N(CC(=O)O)CC(=O)NCCN=C=S (configuration not stated) | > 100 | > 100 µM | > 100 µM | > 100 | > 100 | > 100 µM | > 100 | > 100 µM | > 100 µM | > 100 µM |  |  |  |  |  |  |
| COc1ccc(C(OCC2OC(n3cc(C)c(=O)[nH]c3=O)CC2n2cc(Cn3cc(I)c(=O)[nH]c3=O)nn2)(c2ccccc2)c2ccccc2)cc1 (configuration not stated) | > 100 | > 100 µM | > 100 µM | > 100 | > 100 | > 100 µM | > 100 | > 100 µM | > 100 µM | > 100 µM |  |  |  |  |  |  |
| COc1cc(/C=C/C(=N\NS(=O)(=O)c2ccc(C)cc2)c2sc(NNC(C)=O)nc2C)ccc1O | > 100 | > 100 µM | > 100 µM | > 100 | > 100 | > 100 µM | > 100 | > 100 µM | > 100 µM | > 100 µM |  |  |  |  |  |  |
| Cc1cc(=O)[nH]c(NN2C(Cl)C(=O)C2c2ccccc2O)n1 (configuration not stated) | > 100 | > 100 µM | > 100 µM | > 100 | > 34.7 | > 100 µM | > 100 | > 78.1 µM | > 100 µM | > 100 µM |  |  |  |  |  |  |
| Cc1c2cnccc2c(C)c2c1c1ccccc1n2CCCN | 0.798 | 0.865 µM and 1.24 µM | 2.19 µM and 0.781 µM | 2.37 | 0.91 | 0.815 µM and 0.286 µM | 0.439 | 1.88 µM and 0.225 µM | 1.18 µM and 0.482 µM | 1.29 µM and 0.447 µM | 0.285 µM and 0.24 µM | 0.0945 | 0.0374 | 0.0471 | 0.0685 | 0.165 |
| Cc1ccsc1/C=N/Nc1ncccn1 | > 100 | > 100 µM | > 100 µM | > 100 | > 100 | > 100 µM | > 100 | > 100 µM | > 100 µM | > 100 µM |  |  |  |  |  |  |
| Oc1ccc(-c2nc(-c3cccnc3)c(-c3ccc(F)cc3)[nH]2)cc1 | 63.1 | 32 µM | 60.8 µM | 46.4 | 32.9 | 33.2 µM | 41.7 |  | 25.5 µM | 65 µM |  |  |  |  |  |  |
| CC(C)CC(=O)OC[n+]1ccc(-c2c(COC(=O)NC(C)C)c(COC(=O)NC(C)C)c3n2CCC3)cc1 | > 100 | > 100 µM | > 100 µM | > 100 | > 100 | > 100 µM | > 100 | > 100 µM | > 100 µM | > 100 µM |  |  |  |  |  |  |
| O=[N+]([O-])C(=C1NCCN1)/C(Cl)=C(\Cl)Br | > 100 | > 100 µM | > 100 µM | > 100 | > 100 | > 100 µM | > 100 | > 100 µM | > 69.6 µM | > 100 µM |  |  |  |  |  |  |
| Cc1ccc(SCC(CSCCO)OCn2cnc3c2NC(N)=NC32OCCO2)cc1 (configuration not stated) | > 100 | > 100 µM | > 100 µM | > 100 | > 100 |  | > 100 | > 100 µM | > 100 µM | > 100 µM |  |  |  |  |  |  |
